In ChEMBL document CHEMBL3864157, “The synthesis and antistaphylococcal activity of dehydroabietic acid derivatives: Modifications at C-12” (2016) one finds MIC data, which are given here for 3 compounds.

Values after ≈ are worked out from the molar mass of the structure shown. Bounds are passed on as bounds.

Holding throughout (format): functional
For assay [1], the system named is Staphylococcus aureus. Nature of the assay: Antibacterial activity against gentamicin-resistant Staphylococcus aureus NRS-108.
Assay [2] relates to Staphylococcus aureus. The experiment in a line: Antibacterial activity against Staphylococcus aureus Newman.
Assay [3] relates to Staphylococcus aureus. Nature of the assay: Antibacterial activity against aminoglycosides/tetracycline-resistant Staphylococcus aureus NRS-1.
Assay [4] relates to Staphylococcus aureus. Nature of the assay: Antibacterial activity against oxacillin/tetracycline-resistant Staphylococcus aureus NRS-100.
Assay [5] deals with Staphylococcus aureus. The experiment in a line: Antibacterial activity against linezolid-resistant Staphylococcus aureus NRS-271.
Assay [6] relates to Staphylococcus aureus. Nature of the assay: Antibacterial activity against erythromycin-resistant Staphylococcus aureus NRS-70.

For orientation: MIC means the lowest concentration that inhibits growth of the organism. A low value points to a more susceptible organism.

Turning to `CC(C)c1cc2c(cc1C(=NO)c1ccc(Cl)cc1Cl)[C@@]1(C)CCC[C@@](C)(C(=O)O)[C@@H]1CC2`, the minimal inhibitory concentration (MIC) in assay [1] is 1.56 to 3.13 µg/mL (≈ 3.19 to 6.41 µM); in assay [2] it was 1.56 to 3.13 µg/mL (≈ 3.19 to 6.41 µM); in assay [3], 3.13 µg/mL (≈ 6.41 µM); in assay [4], 3.13 µg/mL (≈ 6.41 µM); in assay [5], 1.56 to 3.13 µg/mL (≈ 3.19 to 6.41 µM); in assay [6], 1.56 to 3.13 µg/mL (≈ 3.19 to 6.41 µM).

Regarding `C#CCON=C(c1ccccc1)c1cc2c(cc1C(C)C)CC[C@H]1[C@](C)(C(=O)O)CCC[C@]21C`, the MIC in assay [1] was 3.13 to 6.25 µg/mL (≈ 6.84 to 13.7 µM); in assay [2] it was 2.5 µg/mL (≈ 5.46 µM); in assay [3], 6.25 to 12.5 µg/mL (≈ 13.7 to 27.3 µM); in assay [4] it was 3.13 µg/mL (≈ 6.84 µM); in assay [5], 3.13 to 6.25 µg/mL (≈ 6.84 to 13.7 µM); in assay [6] it was 1.56 to 2.5 µg/mL (≈ 3.41 to 5.46 µM).

Take `C#CCON=C(c1ccc(Cl)cc1Cl)c1cc2c(cc1C(C)C)CC[C@H]1[C@](C)(C(=O)O)CCC[C@]21C`: the MIC in assay [1] was 12.5 µg/mL (≈ 23.7 µM); in assay [2], 1.56 to 3.13 µg/mL (≈ 2.96 to 5.94 µM); in assay [3] it was > 25 µg/mL; in assay [4] it was 12.5 to 25 µg/mL (≈ 23.7 to 47.5 µM); in assay [5], 12.5 to 25 µg/mL (≈ 23.7 to 47.5 µM); in assay [6] it was 1.56 to 3.13 µg/mL (≈ 2.96 to 5.94 µM).
